Experiments:
[1] = test system: mouse embryonic liver cells (BNLCL.2); experiment: Comet Assay of UV-irradiated cells (DNA damage); type: cell-based; conditions: BNLCL.2 cells, UVB 100 J·m-2; treatment given 30 minutes or 2 hr before UV irradiation; API and FeP 40 folds, FePA 20 folds dilution with PBS
Experimental: UV irradiation of the cells was used in this experiment to simulate the effects of radiation on normal cells, and the results were evaluated by Comet Assay. Comet Assay is a fast, sensitive and convenient method for examining DNA damage and is widely used in studying DNA damage caused by radiation, examining DNA crosslink, evaluating genotoxicity of drugs and identifying cell apoptosis, etc. […]
The mouse embryonic liver cells (BNLCL.2) were inoculated onto a 35 mm culture dish at the density of 3*10^5 cell/mL and cultured for at least 20 hours before subjected to the test. […] The treated cells were then collected with a scraper, counted, and centrifuged at 1,200 rpm for 5 minutes. […]
The bottle containing LM agarose was placed in 95° C. water for 5 minutes with loosed cap and then transferred to a 37° C. water bath for at least 20 minutes. […] The resulting images were analyzed using the epifluorescence microscope (the maximum excitation and emission wavelength of SYBR®Green I are 494 nm and 521 nm, respectively.) The fluorescence filter was also adjusted accordingly for efficient lighting) 200×.

NMRI mice = experiment: Acute radiation protection in irradiated mice (WBC number); type: in vivo, mouse; conditions: 8Gy; amifostine 6.25 mg/kg i.v. 30 min before irradiation; 30 days after treatment
Experimental: Efficacy Result: In animal study, 30-day old NMRI mice weighing 20 to 30 g were tested for acute radiation protection. For radiation control group, mice were given 1, 4, and 8 Gy irradiation in 10 minutes, and for the standard treatment group, FDA-approved amifostine (6.25 mg/kg) was injected intravenously, and 30 minutes later the animals were given 8 Gy irradiation in 10 minutes. The 30 mins duration design is based on the short half-life of amifostine. A-01 indicates FePA with a formulation ratio of PEG-b-PGA:FeCl2.4H2O:amifostine=4:1:1 (w:w:w). The animals in the test group A-01 were administered intravenously with 37.5 mg/kg A-01 (containing the same amount of amifostine as used in the standard treatment group), and 120 minutes post injection, the animals were given 8 Gy radiation in 10 minutes. WBC number and survival rates were analyzed 30 days after treatment.

[2] = cited from earlier work

SMILES: NCCCNCCSP(=O)(O)O [Amifostine]
- average percentage of damaged DNA in the tail of the Comet (% TDNA) compared with the positive control group (UV) [1]: significantly reduced
- WBC (NMRI mice): 3.04-3.80 1000/cm^3
- amifostine remaining after i.v. injection ([2]; 6 minutes after i.v. injection): 10%
- distribution half-life ([2]; patients): less than 1 minute
- elimination half-life ([2]; patients): 8 min

From patent US9795677B2, “Method for reducing damage caused by free radicals” (Original BioMedicals Co., Ltd, priority 2012, dated 2017)
